# Source: US11629136B1, “Substituted pyridine derivatives as SARM1 inhibitors” (Nura Bio, Inc., priority 2021, dated 2023)
# Target: human SARM1(50-724) (Homo sapiens (Human), UniProt Q6SZW1)
# Test: SARM1 NAD hydrolase biological assay (HPLC readout of NAD and NAM peak areas)
# Assay type: biochemical
# Conditions: 40 nM human SARM1(50-724), 0.3 mM NMN, 20 μM NAD, 60 minutes at room temperature; class symbols; read-out: Average IC50
# Procedure: The reaction was incubated at room temperature for 60 minutes and quenched with 20 μL of 0.4% formic acid. […] Total run time for each sample was 4 minutes. The run was isocratic with 1.5% methanol in 40 mM ammonium acetate pH 6.0. Samples were run at a flow rate of 0.8 ml/min at 55° C. Peak areas of NAD and NAM were determined using OpenLAB CDS (Chem Station edition) software. For dose-response, the compound was diluted serially 1:3 in DMSO and added to the reaction starting at a final compound concentration of 100 μM in 1% DMSO.
# Sequence of human SARM1(50-724) (Q6SZW1 50-724): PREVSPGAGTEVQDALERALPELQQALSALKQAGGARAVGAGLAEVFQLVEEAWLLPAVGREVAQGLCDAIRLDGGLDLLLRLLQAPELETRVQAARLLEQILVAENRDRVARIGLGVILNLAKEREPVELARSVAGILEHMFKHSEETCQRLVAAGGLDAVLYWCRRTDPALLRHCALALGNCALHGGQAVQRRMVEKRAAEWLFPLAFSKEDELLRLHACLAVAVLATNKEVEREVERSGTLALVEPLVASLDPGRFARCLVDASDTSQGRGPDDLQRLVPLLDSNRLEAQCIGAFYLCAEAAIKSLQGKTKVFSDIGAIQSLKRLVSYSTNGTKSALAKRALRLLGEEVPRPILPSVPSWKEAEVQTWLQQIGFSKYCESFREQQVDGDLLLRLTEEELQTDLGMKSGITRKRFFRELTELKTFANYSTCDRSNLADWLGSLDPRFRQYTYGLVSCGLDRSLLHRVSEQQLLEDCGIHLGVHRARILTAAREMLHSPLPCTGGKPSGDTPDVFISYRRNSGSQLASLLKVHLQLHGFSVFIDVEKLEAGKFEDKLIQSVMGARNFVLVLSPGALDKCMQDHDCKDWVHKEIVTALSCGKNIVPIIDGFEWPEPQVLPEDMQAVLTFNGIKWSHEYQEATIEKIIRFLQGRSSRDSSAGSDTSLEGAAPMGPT
row,IC50 [nM],Compound
1,< 1000,"Fc1cnccc1Cc1c[nH]c(CC(F)(F)F)n1 [Example 36, 3-Fluoro-4-((2-(2,2,2-trifluoroethyl)-1H-imidazol-4-yl)methyl)pyridine]"
2,1000 to 10000,"OC(c1nc(Cc2ccncc2)c[nH]1)(C(F)(F)F)C(F)(F)F [Example 39, 1,1,1,3,3,3-Hexafluoro-2-(4-(pyridin-4-ylmethyl)-1H-imidazol-2-yl)propan-2-ol]"
